Reference: ChEMBL document CHEMBL1155011, “Structure-activity relationships of the cycloalkanol ethylamine scaffold: discovery of selective norepinephrine reuptake inhibitors” (J Med Chem, 2008)

Columns and labels:
[1] = biological target: Sodium-dependent dopamine transporter (Homo sapiens, UniProt Q01959); experiment: Displacement of [3H]WIN-35428 from human recombinant dopamine transporter expressed in CHO cells at 1000 nM; type: cell-based
[2] = biological target: T1, Sodium-dependent noradrenaline transporter (Homo sapiens, UniProt P23975)
T1 sequence (P23975 whole entry): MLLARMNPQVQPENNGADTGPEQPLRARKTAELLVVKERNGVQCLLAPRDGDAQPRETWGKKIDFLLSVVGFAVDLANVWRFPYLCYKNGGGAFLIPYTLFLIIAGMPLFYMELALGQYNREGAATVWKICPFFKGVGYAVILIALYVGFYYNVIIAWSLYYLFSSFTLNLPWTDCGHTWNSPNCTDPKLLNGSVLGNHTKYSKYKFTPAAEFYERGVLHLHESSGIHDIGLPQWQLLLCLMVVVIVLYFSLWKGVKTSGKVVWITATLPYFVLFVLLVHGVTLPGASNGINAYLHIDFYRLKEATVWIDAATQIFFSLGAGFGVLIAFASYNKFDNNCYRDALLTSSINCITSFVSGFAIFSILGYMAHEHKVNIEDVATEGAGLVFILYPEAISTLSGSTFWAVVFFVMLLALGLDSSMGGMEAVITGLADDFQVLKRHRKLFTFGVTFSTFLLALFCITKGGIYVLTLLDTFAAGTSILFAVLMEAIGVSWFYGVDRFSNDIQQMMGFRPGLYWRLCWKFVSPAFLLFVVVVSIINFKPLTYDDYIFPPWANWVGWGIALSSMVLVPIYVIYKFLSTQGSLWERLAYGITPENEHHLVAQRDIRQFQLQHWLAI

[3] = biological target: T1, Sodium-dependent noradrenaline transporter; experiment: biochemical
[4] = biological target: T2, Sodium-dependent serotonin transporter (Homo sapiens, UniProt P31645); experiment: Inhibition of 5HT uptake at human SERT expressed in human JAR cells at 1000 nM; type: cell-based
Target sequence in this assay (P31645 whole entry, looked up): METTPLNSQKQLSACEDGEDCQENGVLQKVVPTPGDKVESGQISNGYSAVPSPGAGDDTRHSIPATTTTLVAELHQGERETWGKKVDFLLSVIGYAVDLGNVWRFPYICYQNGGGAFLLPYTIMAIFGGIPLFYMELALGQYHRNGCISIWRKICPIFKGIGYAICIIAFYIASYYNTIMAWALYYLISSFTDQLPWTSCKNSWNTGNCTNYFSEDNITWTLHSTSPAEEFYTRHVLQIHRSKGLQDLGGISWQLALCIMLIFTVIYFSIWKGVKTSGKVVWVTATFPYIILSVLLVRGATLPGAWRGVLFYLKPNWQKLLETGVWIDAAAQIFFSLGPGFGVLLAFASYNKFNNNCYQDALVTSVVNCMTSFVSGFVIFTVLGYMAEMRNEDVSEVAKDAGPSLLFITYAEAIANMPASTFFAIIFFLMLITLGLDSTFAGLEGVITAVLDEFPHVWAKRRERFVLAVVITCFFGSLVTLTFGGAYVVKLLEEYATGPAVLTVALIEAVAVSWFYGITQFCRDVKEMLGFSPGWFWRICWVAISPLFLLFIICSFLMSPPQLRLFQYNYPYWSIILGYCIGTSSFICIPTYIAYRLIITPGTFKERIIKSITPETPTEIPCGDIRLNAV

[5] = biological target: T1, Sodium-dependent noradrenaline transporter; experiment: Inhibition of norepinephrine uptake at human norepinephrine transporter expressed in MDCK-Net6 cells at 1000 nM; type: cell-based
[6] = biological target: T1, Sodium-dependent noradrenaline transporter; experiment: Displacement of [3H]nisoxetine from human norepinephrine transporter expressed in MDCK-Net6 cells at 1000 nM; type: cell-based
[7] = biological target: T2, Sodium-dependent serotonin transporter; type: cell-based, JAR
Target sequence in this assay (P31645 whole entry): as the sequence (P31645 whole entry, looked up) above

Homo sapiens = species on record: Homo sapiens; experiment: Selectivity ratio of IC50 for human NET over IC50 for human SERT
Transporter = Transporter (Rattus norvegicus, UniProt Q63380)
Chain of Transporter (Q63380 whole entry): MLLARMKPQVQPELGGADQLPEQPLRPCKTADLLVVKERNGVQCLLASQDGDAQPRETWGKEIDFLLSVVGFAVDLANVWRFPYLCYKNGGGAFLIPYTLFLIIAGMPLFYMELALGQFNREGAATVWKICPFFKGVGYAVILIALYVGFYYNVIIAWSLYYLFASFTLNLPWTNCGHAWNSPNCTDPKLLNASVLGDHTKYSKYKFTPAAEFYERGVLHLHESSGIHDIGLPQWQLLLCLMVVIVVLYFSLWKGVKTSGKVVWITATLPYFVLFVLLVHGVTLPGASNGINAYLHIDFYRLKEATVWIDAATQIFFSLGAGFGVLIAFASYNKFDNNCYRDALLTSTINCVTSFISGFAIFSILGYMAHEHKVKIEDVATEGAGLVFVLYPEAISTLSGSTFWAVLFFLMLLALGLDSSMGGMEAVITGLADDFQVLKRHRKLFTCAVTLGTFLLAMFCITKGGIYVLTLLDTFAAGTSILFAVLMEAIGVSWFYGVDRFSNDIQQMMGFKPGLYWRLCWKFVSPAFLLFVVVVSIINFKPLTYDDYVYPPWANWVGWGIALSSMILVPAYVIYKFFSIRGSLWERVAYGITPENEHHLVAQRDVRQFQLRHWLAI
Description: Inhibition of norepinephrine uptake at rat brain norepinephrine transporter

[8] = biological target: Sodium-dependent serotonin transporter (Rattus norvegicus, UniProt P31652)
Chain of Sodium-dependent serotonin transporter (Rattus norvegicus, UniProt P31652) (P31652 whole entry): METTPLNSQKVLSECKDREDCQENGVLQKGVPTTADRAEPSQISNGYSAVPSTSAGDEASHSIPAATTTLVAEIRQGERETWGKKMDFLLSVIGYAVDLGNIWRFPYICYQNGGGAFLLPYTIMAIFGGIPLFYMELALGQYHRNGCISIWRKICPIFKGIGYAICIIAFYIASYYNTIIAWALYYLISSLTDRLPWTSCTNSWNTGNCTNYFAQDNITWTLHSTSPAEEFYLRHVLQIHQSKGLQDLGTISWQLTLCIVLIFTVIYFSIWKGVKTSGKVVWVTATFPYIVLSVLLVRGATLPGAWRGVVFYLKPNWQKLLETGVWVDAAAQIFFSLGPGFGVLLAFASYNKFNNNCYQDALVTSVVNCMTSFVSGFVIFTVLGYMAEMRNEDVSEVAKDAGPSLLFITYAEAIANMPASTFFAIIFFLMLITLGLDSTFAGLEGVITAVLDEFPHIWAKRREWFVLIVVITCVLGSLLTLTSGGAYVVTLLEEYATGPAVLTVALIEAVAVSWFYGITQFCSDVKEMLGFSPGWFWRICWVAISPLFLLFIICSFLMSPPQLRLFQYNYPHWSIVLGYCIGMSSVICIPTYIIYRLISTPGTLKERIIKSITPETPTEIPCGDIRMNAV
Description: Inhibition of 5HT uptake at rat brain SERT

Chain of Sodium-dependent dopamine transporter (Q01959 whole entry): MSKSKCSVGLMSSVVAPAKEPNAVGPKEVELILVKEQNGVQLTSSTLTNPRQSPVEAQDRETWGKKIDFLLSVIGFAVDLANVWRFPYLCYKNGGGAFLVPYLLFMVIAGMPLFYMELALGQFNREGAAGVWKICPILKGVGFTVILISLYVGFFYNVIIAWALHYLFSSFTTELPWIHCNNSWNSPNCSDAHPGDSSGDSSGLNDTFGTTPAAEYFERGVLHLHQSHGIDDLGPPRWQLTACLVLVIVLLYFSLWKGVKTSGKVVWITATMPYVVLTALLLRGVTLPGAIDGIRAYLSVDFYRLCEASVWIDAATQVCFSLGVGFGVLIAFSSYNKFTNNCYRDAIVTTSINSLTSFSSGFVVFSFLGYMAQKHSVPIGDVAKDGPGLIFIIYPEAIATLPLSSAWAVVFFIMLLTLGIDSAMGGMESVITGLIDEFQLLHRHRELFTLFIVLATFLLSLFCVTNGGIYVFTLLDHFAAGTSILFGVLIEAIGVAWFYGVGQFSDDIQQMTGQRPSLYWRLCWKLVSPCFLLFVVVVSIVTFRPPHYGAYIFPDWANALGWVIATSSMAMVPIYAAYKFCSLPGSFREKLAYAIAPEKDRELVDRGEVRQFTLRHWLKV

| Activity [1] [%] | IC50 [2] [nM] | Ki [3] [nM] | inhibition [4] [%] | inhibition [5] [%] | Activity [6] [%] | IC50 [7] [nM] | Ratio IC50 (Homo sapiens) | IC50 (Transporter) [nM] | IC50 [8] [nM] | SMILES |
| --- | --- | --- | --- | --- | --- | --- | --- | --- | --- | --- |
| 13 | 284 | 140 | 3 |  |  |  |  |  |  | OC1(C(CN2CCNCC2)c2cccc(OC(F)(F)F)c2)CCCCC1 (stereo unspecified) |
| 0 |  |  |  |  |  |  |  |  |  | CN(C)C[C@H](c1cccc(Cl)c1)C1(O)CCCCC1 |
|  |  |  |  | 31 | 38 |  |  |  |  | OC1(C(CN2CCNCC2)c2ccccc2F)CCCCC1 (stereo unspecified) |
| 13 | 575 | 417 |  |  |  | 1210 |  |  |  | CN1CCN(CC(c2ccc(OC(F)(F)F)cc2)C2(O)CCCCC2)CC1 (stereo unspecified) |
| 35 |  | 717 |  | 29 |  | 1520 |  |  |  | OC1(C(CN2CCNCC2)c2ccc(Cl)cc2)CCCCC1 (stereo unspecified) |
| 9 | 205 | 125 |  |  |  | 177 | 0.86 | 640 | 13 | CN(C)CC(c1ccccc1Cl)C1(O)CCCCC1 (stereo unspecified) |
| 0 | 1450 | 1380 | 32 |  |  |  |  |  |  | CN1CCN(CC(c2ccc(F)cc2)C2(O)CCCCC2)CC1 (stereo unspecified) |
| 23 | 120 | 249 |  |  |  | 123 | 1 | 300 |  | CN(C)CC(c1ccc(Cl)cc1)C1(O)CCCCC1 (stereo unspecified) |
| 4 | 94 | 58 | 13 |  |  |  |  |  |  | OC1(C(CN2CCNCC2)c2cccc(C(F)(F)F)c2)CCCCC1 (stereo unspecified) |
